Laboratory results taken from patent US8685970B2, “Quinolines and related analogs as sirtuin modulators” (GlaxoSmithKline, LLC, priority 2008, dated 2014).

What follows are compounds tested against T1, SIRT1 (Homo sapiens, UniProt Q96EB6) (assay: Mass spectrometry based SIRT1 deacetylation assay (activation)). Conditions: 10 nM SIRT1, 0.5 μM peptide substrate, 120 μM βNAD+, 25 min at 25° C.
T1 sequence (Q96EB6 1-747): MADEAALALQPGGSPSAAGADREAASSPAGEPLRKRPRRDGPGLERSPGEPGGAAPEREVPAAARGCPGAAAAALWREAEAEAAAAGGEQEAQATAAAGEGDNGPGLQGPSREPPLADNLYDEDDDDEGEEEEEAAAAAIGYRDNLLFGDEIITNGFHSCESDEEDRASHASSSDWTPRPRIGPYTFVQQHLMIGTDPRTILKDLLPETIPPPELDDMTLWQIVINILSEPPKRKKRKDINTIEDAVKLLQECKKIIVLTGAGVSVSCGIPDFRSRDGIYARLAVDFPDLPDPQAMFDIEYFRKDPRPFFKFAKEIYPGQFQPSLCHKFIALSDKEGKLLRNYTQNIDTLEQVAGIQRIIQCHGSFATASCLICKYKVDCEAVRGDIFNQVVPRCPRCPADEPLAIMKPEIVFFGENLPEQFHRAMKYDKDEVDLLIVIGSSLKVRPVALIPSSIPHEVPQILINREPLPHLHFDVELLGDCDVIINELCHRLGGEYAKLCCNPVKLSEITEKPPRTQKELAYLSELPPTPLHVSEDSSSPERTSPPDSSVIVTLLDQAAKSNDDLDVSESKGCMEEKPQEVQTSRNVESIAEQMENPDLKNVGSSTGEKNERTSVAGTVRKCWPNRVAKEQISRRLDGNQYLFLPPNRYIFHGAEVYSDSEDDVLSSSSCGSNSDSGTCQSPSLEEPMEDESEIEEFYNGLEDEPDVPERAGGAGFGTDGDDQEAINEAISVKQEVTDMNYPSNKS
Type: biochemical
Summary of the method: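 Recombinant N-His-tagged SIRT1 (E. coli BL21(DE3)), 10 nM, incubated 25 min at 25 °C with 0.5 μM biotin/5TMR-labelled acetyl-p53-derived 20-mer peptide and 120 μM βNAD+ in Tris-acetate pH 8 buffer with DTT and BSA. Formic acid stop; MS quantifies acetylated vs deacetylated peptide. EC1.5 = concentration giving 150% activation versus DMSO.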

| SMILES | EC1.5 (concentration of test compound that results in 150% activation of SIRT1) | % Fold Act. (percent maximum fold activation) |
| --- | --- | --- |
| O=C(Nc1cccc2ccc(-c3ccc(F)c(C(F)(F)F)c3)nc12)c1ccccc1 [Compound 170] | C (EC1.5>25 uM) |  |
| O=C(Nc1cccc2ccc(-c3cccc(OC(F)(F)F)c3)nc12)c1ccccc1F [Compound 20] | C (EC1.5>25 uM) |  |
| O=C(Nc1cccc2ccc(-c3cccc(OC(F)(F)F)c3)nc12)c1ccc(F)cc1 [Compound 22] | C (EC1.5>25 uM) |  |
| O=C(Nc1cccnn1)c1cccc2ccc(-c3cccc(N4CCOCC4)c3)nc12 [Compound 269] | A (EC1.5<1.0 uM) | A (Fold activation >200%) |
| O=C(Nc1cccnc1)c1cccc2cnc(-c3cccc(C(F)(F)F)c3)nc12 [Compound 282] | C (EC1.5>25 uM) |  |
| O=C(Nc1ccncn1)c1cccc2ccc(-c3cccc(OC4CCNCC4)c3)nc12 [Compound 133] | A (EC1.5<1.0 uM) | A (Fold activation >200%) |
| O=C(Nc1nccs1)c1cccc2cnc(-c3cccnc3)nc12 [Compound 280] | C (EC1.5>25 uM) |  |
| O=C(Nc1cccc2ccc(-c3ccc(O)cc3)nc12)c1cscn1 [Compound 186] | B (EC1.5 1-25 uM) | A (Fold activation >200%) |
| Cc1cc(-c2ccc3cccc(C(=O)Nc4ccccn4)c3n2)no1 [Compound 64] | C (EC1.5>25 uM) |  |
| O=C(Nc1cnccn1)c1cccc2ccc(-c3cccnc3)nc12 [Compound 181] | C (EC1.5>25 uM) |  |
| Fc1ccc(C(F)(F)F)cc1-c1ccc2cccc(NCc3cccnc3)c2n1 [Compound 167] | C (EC1.5>25 uM) |  |
| Cc1csc(NC(=O)c2cccc3ccc(-c4cccc(N5CCOCC5)c4)nc23)n1 [Compound 238] | A (EC1.5<1.0 uM) | A (Fold activation >200%) |
| O=C(Nc1ccncc1)c1cccc2ccc(-c3cccnc3)nc12 [Compound 237] | C (EC1.5>25 uM) |  |
| Cc1cccc(NC(=O)c2cccc3ccc(-c4cccnc4)nc23)n1 [Compound 249] | B (EC1.5 1-25 uM) | A (Fold activation >200%) |
| FC(F)(F)c1cccc(-c2ccc3cccc(CNC4CCCC4)c3n2)c1 [Compound 143] | C (EC1.5>25 uM) |  |
| O=C(Nc1cccc2ccc(-c3ccc(F)nc3)nc12)c1cscn1 [Compound 176] | A (EC1.5<1.0 uM) | A (Fold activation >200%) |
| Cn1ccc(NC(=O)c2cccc3ccc(-c4cccc(C(F)(F)F)c4)nc23)n1 [Compound 272] | A (EC1.5<1.0 uM) | A (Fold activation >200%) |
| O=C(Nc1cccc2ccc(-c3cccc(N4CCCC4)c3)nc12)c1cscn1 [Compound 201] | C (EC1.5>25 uM) |  |
| Cc1csc(NC(=O)c2cccc3cnc(-c4cccc(N5CCOCC5)c4)nc23)n1 [Compound 313] | A (EC1.5<1.0 uM) | A (Fold activation >200%) |
| O=C(Nc1nccs1)c1cccc2ccc(-c3ccnc(N4CCC4)c3)nc12 [Compound 179] | A (EC1.5<1.0 uM) | A (Fold activation >200%) |
| O=C(Nc1ccccn1)c1cccc2ccc(-c3cccc(N4CCOCC4)c3)nc12 [Compound 109] | A (EC1.5<1.0 uM) | A (Fold activation >200%) |
| c1cncc(CNc2cccc3ccc(-c4cccc(N5CCOCC5)c4)nc23)c1 [Compound 172] | C (EC1.5>25 uM) |  |

| SMILES | EC1.5 (concentration of test compound that results in 150% activation of SIRT1) | % Fold Act. (percent maximum fold activation) |
| --- | --- | --- |
| O=C(Nc1ccncn1)c1cccc2ccc(-c3cccc(C(F)(F)F)c3)nc12 [Compound 41] | A (EC1.5<1.0 uM) | A (Fold activation >200%) |
| O=C(Nc1nccs1)c1cccc2ccc(-c3cccc(N4CCOCC4)c3)nc12 [Compound 108] | A (EC1.5<1.0 uM) | A (Fold activation >200%) |
| Cc1nnc(NC(=O)c2cccc3ccc(-c4cccc(N5CCOCC5)c4)nc23)o1 [Compound 276] | A (EC1.5<1.0 uM) | A (Fold activation >200%) |
| O=C(Nc1ncc(CN2CCCC2)s1)c1cccc2ccc(-c3cccc(C(F)(F)F)c3)nc12 [Compound 219] | A (EC1.5<1.0 uM) | A (Fold activation >200%) |
| O=C(Nc1cccc(CN2CCOCC2)n1)c1cccc2ccc(-c3cccnc3)nc12 [Compound 231] | A (EC1.5<1.0 uM) | A (Fold activation >200%) |
| CN1CCN(Cc2cccc(C(=O)Nc3cccc4ccc(-c5cccc(C(F)(F)F)c5)nc34)c2)CC1 [Compound 216] | A (EC1.5<1.0 uM) | A (Fold activation >200%) |
| O=C(Nc1ncc(CN2CCOCC2)s1)c1cccc2ccc(-c3cccc(OC(F)(F)F)c3)nc12 [Compound 189] | A (EC1.5<1.0 uM) | A (Fold activation >200%) |
| O=C(Nc1cccc2ccc(-c3ccccc3)nc12)c1cccc(OC(F)(F)F)c1 [Compound 6] | C (EC1.5>25 uM) |  |
| O=C(Nc1cccc(CN2CCOCC2)n1)c1cccc2ccc(-c3cccc(C(F)F)c3)nc12 [Compound 287] | A (EC1.5<1.0 uM) | A (Fold activation >200%) |
| O=C(Nc1cccc(CN2CCOCC2)c1)c1cccc2ccc(-c3cccc(C(F)F)c3)nc12 [Compound 286] | A (EC1.5<1.0 uM) | A (Fold activation >200%) |
| O=C(Nc1cccc2ccc(-c3ccc(N4CCOCC4)nc3)nc12)c1cscn1 [Compound 246] | B (EC1.5 1-25 uM) | A (Fold activation >200%) |
| O=C(Nc1cccc2ccc(-c3cccc(OC(F)(F)F)c3)nc12)c1cnccn1 [Compound 8] | A (EC1.5<1.0 uM) | B (Fold Activation <200%) |
| O=C(Nc1ccccc1)c1cccc2ccc(-c3cccc(OC(F)(F)F)c3)nc12 [Compound 11] | B (EC1.5 1-25 uM) | B (Fold Activation <200%) |
| O=C(Nc1cccc2ccc(-c3cccc(C(F)(F)F)c3)nc12)c1csc(-c2ccccc2)n1 [Compound 206] | C (EC1.5>25 uM) |  |
| O=C(Nc1cccc2ccc(-c3cc(F)cc(C(F)(F)F)c3)nc12)c1ccccc1 [Compound 153] | C (EC1.5>25 uM) |  |
| Cc1cnc(NC(=O)c2cccc3ccc(-c4cccnc4)nc23)s1 [Compound 225] | C (EC1.5>25 uM) |  |
| O=C(Nc1cccc2ccc(-c3ccc(F)c(C(F)(F)F)c3)nc12)c1cnccn1 [Compound 157] | C (EC1.5>25 uM) |  |
| O=C(Nc1ccccn1)c1cccc2ccc(-c3ccc(C(F)(F)F)cc3)nc12 [Compound 97] | C (EC1.5>25 uM) |  |
| O=C(Nc1nncs1)c1cccc2ccc(-c3cccc(C(F)(F)F)c3)nc12 [Compound 28] | A (EC1.5<1.0 uM) | A (Fold activation >200%) |
| O=C(NC1CCCC1)c1cccc2ccc(-c3cccc(C(F)(F)F)c3)nc12 [Compound 40] | C (EC1.5>25 uM) |  |
| Cc1cc(C)nc(NC(=O)c2cccc3ccc(-c4cccc(C(F)(F)F)c4)nc23)c1 [Compound 53] | A (EC1.5<1.0 uM) | A (Fold activation >200%) |
| O=C(Nc1ncnc2ccc(-c3cccc(OC(F)(F)F)c3)nc12)c1ccccn1 [Compound 194] | A (EC1.5<1.0 uM) | A (Fold activation >200%) |
